Assays:
plasma protein = assay: Plasma protein binding (plasma bound fraction); type: in vitro ADME; settings: assumed, no specific indications found
Procedure: The lipid content and albumin concentrations of the test media N2 and BHK medium were calculated on the basis of the available information provided by the suppliers (Fig. S2A). The data on rat plasma have been adopted from (Verwei et al. [2006]). The original references are (Barber et al. [1990]) for albumin and (DeJongh et al. [1997]) for lipids. Human plasma values were taken from (Gulden and Seibert [2003]). The original data on albumin are from (Lindup [1987]) and for lipids from (Patterson et al. [1988]). Total protein concentrations were calculated based on the assumption that the protein molar mass is similar to the one of albumin (66 kDa). […]
(a) Developmental toxicity (DT)—inducing concentrations were extrapolated from the in vivo study reported in the document by the Australian Therapeutic Goods Administration (Australian Therapeutic Goods Administration [2014]). […] (c) The nominal in vitro concentrations equivalent to the concentration used in vivo were calculated using the value of total protein concentration instead of albumin concentration. […]
(c) The nominal in vitro concentrations equivalent to the concentration used in vivo in rats and humans (Cmax and Cavg) were determined assuming only binding to the specific drug-binding proteins (albumin and/or α1-acid glycoprotein) (Fig. S2D).

[1] = parameters: method as in Supko et al. [1995]; settings: mouse, i.v.; ref Supko et al. [1995]; cited from earlier work
[2] = system: neuronal precursor cells derived from human embryonic stem cells; parameters: method as in Waldmann et al. [2014]; settings: ref Waldmann et al. [2014]; cited from earlier work

Question: For `COC1=C2C[C@@H](C)C[C@H](OC)[C@H](O)[C@@H](C)/C=C(\C)[C@H](OC(N)=O)[C@@H](OC)/C=C\C=C(/C)C(=O)NC(=CC1=O)C2=O` [Geldanamycin], which “fb,pl (plasma bound fraction)” value (plasma protein) is on record?
Answer: Its value is 99%.

Question: What about the “initial volume of distribution” value [1] of the same molecule?
Answer: Its value is 0.16 L/kg.

Question: With `CCCC(CCC)C(=O)O` [Valproic acid] as the molecule, how does the range of tolerance [2] read?
Answer: The range of tolerance was “up to 25 μM”.

— paper PMC5225183, “Fingerprinting of neurotoxic compounds using a mouse embryonic stem cell dual luminescence reporter assay” (Archives of Toxicology, 2016)
